Measured values taken from paper PMC9227106 (Viruses, 2022).
Values joined by “and” are separate entries in the source; they are usually repeats but may differ in a detail not shown here. Identical values can stand only once. Like-named read-outs stand apart in the source and are kept apart here.

Legend:
Flag-Vpr in HeLa cells [1] = assay: Expression level of Vpr assessed by Western blotting analysis; format: cell-based, HIV-1; conditions: 10 μM, 44 h post-treatment
GST-tagged Vpr protein = target: T1, GST-tagged Vpr protein (Human immunodeficiency virus type 1 group M subtype B, UniProt P12520); assay: Surface plasmon resonance (SPR) binding analysis; parameters: species or system HIV-1; conditions: for direct binding to Vpr (SPR): 50 μM compound, GST-Vpr on sensor chip, result in words; for Vpr Binding Kd: SPR (Biacore), GST-Vpr, 3.13 to 100 µM, two independent experiments
T1 construct: made in house; host or cells: E. coli

[2] = Cell-based cytotoxicity analysis, WST-1 assay (MDM cell); conditions: human
Flag-Vpr in HeLa cells [3] = assay: Localization of Vpr visualized by confocal microscopy; format: cell-based, HIV-1; conditions: 10 μM, 44 h post-treatment
[4] = system: Vpr-induced G2/M arrest in Vpr transfected HeLa cells; assay: Analysis of the cell cycle using flow cytometry; format: cell-based, human; conditions: for recovery of the G2-arrest mediated by Vpr (flow cytometry): 10 μM, Vpr-expressing HeLa cells, result in words; for G2 arrest recover (Flow cytometry) Vpr G1% / G2 arrest recover (Flow cytometry) Vpr G2% / G2 arrest recover (Flow cytometry) Vpr G2/G1: Flag-Vpr transfected HeLa; for G2 arrest recover (Flow cytometry) Vpr G1% / G2 arrest recover (Flow cytometry) Vpr G2% / G2 arrest recover (Flow cytometry) Vpr G2/G1 / G2 arrest recover (Flow cytometry) ZsG G1% / G2 arrest recover (Flow cytometry) ZsG G2% / G2 arrest recover (Flow cytometry) ZsG G2/G1: 10 µM; for G2 arrest recover (Flow cytometry) ZsG G1% / G2 arrest recover (Flow cytometry) ZsG G2% / G2 arrest recover (Flow cytometry) ZsG G2/G1: control vector (ZsG) transfected HeLa
[5] = Cell-based cytotoxicity analysis, WST-1 assay (HeLa cell); conditions: human; for viability at 48 h, 10 µM: vs DMSO; for CC50: 50% cytotoxic concentration, HeLa cells, WST-1
[6] = system: Vpr-induced G2/M arrest in Vpr transfected HeLa cells; assay: Cell-based G2 arrest inhibition assay using […]; parameters: species or system human; conditions: 10 µM, 44 h; for G2 arrest recover (CELAVIEW) recover rate vs DMSO(%): added 4 h post-transfection
HIV-1 NF462 = assay: Inhibition assay of HIV replication in HIV-infected MDM (p24 ELISA); format: cell-based; conditions: for inhibition of HIV-1 replication in MDM / inhibition at 10 µM: 10 µM; for inhibition of HIV-1 replication in MDM: two healthy donors 1 and 2, result in words; for inhibition at 10 µM: 8 days; for IC50: read-out: MDM IC50; for MDM SI: selective index, calculated as CC50/IC50 in MDM
[7] = average of n=1 and n=2, read-out: HeLa viability (%) AVERAGE
[8] = replicate 1, read-out: HeLa viability (%) viability n=1
[9] = replicate 2, read-out: HeLa viability (%) viability n=2
[10] = Human immunodeficiency virus 1, MDM donor 1, p24 ELISA, read-out: HIV replication inhibition (%) Donor 1
[11] = Human immunodeficiency virus 1, MDM donor 2, p24 ELISA, read-out: HIV replication inhibition (%) Donor 2
[12] = Human immunodeficiency virus 1, HIV-1 NF462-infected MDM, donors 1 and 4, 8 days, p24 ELISA

T1 sequence (P12520 whole entry): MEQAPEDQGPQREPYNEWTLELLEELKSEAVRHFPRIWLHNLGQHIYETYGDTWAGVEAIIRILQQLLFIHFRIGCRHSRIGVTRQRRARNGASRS

SMILES | expression level of Vpr in HeLa cells (Flag-Vpr in HeLa cells [1]) | CC50 at 48 h [2] [µM] | viability at 10 days, 10 µM [2] [%] | localization of Vpr in HeLa cells (Flag-Vpr in HeLa cells [3]) | recovery of the G2-arrest mediated by Vpr (flow cytometry) [4] | G2 arrest recover (Flow cytometry) Vpr G1% [4] [%] | G2 arrest recover (Flow cytometry) Vpr G2% [4] [%] | G2 arrest recover (Flow cytometry) Vpr G2/G1 [4] | G2 arrest recover (Flow cytometry) ZsG G1% [4] [%] | G2 arrest recover (Flow cytometry) ZsG G2% [4] [%] | G2 arrest recover (Flow cytometry) ZsG G2/G1 [4] | viability at 48 h, 10 µM [5, 7] [%] | viability at 48 h, 10 µM [5, 8] [%] | viability at 48 h, 10 µM [5, 9] [%] | CC50 [5] [µM] | G2 arrest recover (CELAVIEW) cell count vs DMSO [6] | G2 arrest recover (CELAVIEW) recover rate vs DMSO(%) [6] [%] | inhibition of HIV-1 replication in MDM (HIV-1 NF462) | inhibition at 10 µM (HIV-1 NF462; [10]) [%] | inhibition at 10 µM (HIV-1 NF462; [11]) [%] | further results
COCCCNC(=O)C(=O)N/N=C/c1c(O)ccc2ccccc12 [VTD227, N-[(1E)-2-(2-hydroxynaphthyl)-1-azavinyl]-N′-(3-methoxypropyl)ethane-1,2-diamide] | not affected | 17.9 ± 5.3 | 82 | not affected | recovered the G2-arrest mediated by Vpr | 41.76 | 22.13 | 0.52 and 0.5299 | 44.2 | 25.62 | 0.57 and 0.5796 | 89.2 | 84.2 | 94.2 | 99 ± 22 | 72.8 | 60.0 | potently inhibited HIV-1 replication | 99.5 | 103 | Kd (GST-tagged Vpr protein): 8.8 ± 0.48 µM; IC50 (HIV-1 NF462; [12]): 0.78 ± 0.59 µM; MDM SI (HIV-1 NF462): 22.9
CCOc1ccc(OCC(=O)Nc2cc(C)nn2-c2nc(C)c(CC)c(O)n2)cc1 [VTD263, 2-(4-ethoxyphenoxy)-N-[1-(5-ethyl-6-methyl-4-oxo(3-hydropyrimidin-2-yl))-3-methylpyrazol-5-yl]acetamide] | not affected | 38.8 ± 0.76 | 131 | not affected | recovered the G2-arrest mediated by Vpr | 45.86 | 23.17 | 0.5052 | 43.35 | 18.73 | 0.4321 | 70.1 | 65.5 | 74.7 | > 100 | 81.6 | 95.5 | potently inhibited HIV-1 replication | 91.2 | 73.3 | direct binding to Vpr (SPR) (GST-tagged Vpr protein): did not directly bind to Vpr; Vpr Binding Kd (GST-tagged Vpr protein): Not binding; effect on HIV-1 replication at low concentration (HIV-1 NF462; 0.01 to 0.001 μM, MDM): tended to increase HIV-1 replication; IC50 (HIV-1 NF462; Human immunodeficiency virus 1, […]): 11.4 ± 4 µM; effect on HIV-1 virus release at high concentration (HIV-1 NF462; high concentration, MDM): decreased the HIV-1 virus release; MDM SI (HIV-1 NF462): 3.4
COc1ccc2ccccc2c1C1C=C(c2ccccc2)NC(=S)N1 (stereo not shown) [VTD232, 4-(2-methoxy-1-naphthyl)-6-phenyl-3,4-dihydro-2(1H)-pyrimidinethione] | not affected | 30.5 ± 5 | 116 | not affected | recovered the G2-arrest mediated by Vpr | 29.06 | 39.99 | 1.376 | 49.39 | 11.48 | 0.2324 | 87.5 | 88 | 87 | 57.1 ± 30.9 | 95.1 | 49.2 | potently inhibited HIV-1 replication | 99.1 | 82.2 | direct binding to Vpr (SPR) (GST-tagged Vpr protein): did not directly bind to Vpr; Vpr Binding Kd (GST-tagged Vpr protein): Not binding; IC50 (HIV-1 NF462; [12]): 0.0039 ± 0.0046 µM; MDM SI (HIV-1 NF462): 7820
